Several values for one entry are separate records, joined by “and”; a condition that tells them apart may be missing. Equal values may be shown once. Where a name gives a salt, the structure may show the parent alone. Read-outs that look alike come from different tables or passages of the source.
Columns and labels:
PC-3 = experiment: In vitro tumor cell proliferation, PC-3; type: cell-based, human; details: many values given with an undefined *, read-out: In vitro Tumor Cell Proliferation (IC50, μM) Prostate PC-3
Method in brief: (§1)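 SRB read-out: cells seeded overnight, 37° C; drug 3 d, medium plus fresh drug replaced, +4 d; TCA fix 60 min 4° C, 0.4% SRB stain 30 min. Alt. CyQUANT: drug 3 d, plates frozen −80° C before read.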

HT-29 = experiment: In vitro tumor cell proliferation, HT-29; type: cell-based, human; details: many values given with an undefined *, read-out: In vitro Tumor Cell Proliferation (IC50, μM) Colon HT-29
Method in brief: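 Growth was quantified either with CyQUANT, plates frozen at −80° C after 3 days of drug, or by sulforhodamine B staining of TCA-fixed cells after 3 days of drug plus 4 days with fresh drug. Trypan blue-excluding HT-29 cells were plated overnight at 37° C before dosing.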

MDA-MB-435 = experiment: In vitro tumor cell proliferation, MDA-MB-435; type: cell-based; details: values given with an undefined *, read-out: In vitro Tumor Cell Proliferation (IC50, μM) Breast MDA-MB-435
Method in brief: as §1

Colo-205 = experiment: In vitro tumor cell proliferation, Colo-205; type: cell-based; details: values given with an undefined *, read-out: In vitro Tumor Cell Proliferation (IC50, μM) Colon Colo-205
Method in brief: as §1

A549 = experiment: In vitro tumor cell proliferation, A549; type: cell-based, human; details: many values given with an undefined *, read-out: In vitro Tumor Cell Proliferation (IC50, μM) Lung A549
Method in brief: as §1

cdk2/cyclin E = molecular target: T1, cdk2/cyclin E (Homo sapiens, UniProt P24941); experiment: Cyclin-Dependent Kinase 2 Assay (cdk2/cyclin E, GST-Rb substrate); type: biochemical; details: recombinant cdk2/cyclin E, 10 μM ATP, 30 min at 30° C., several values in a cell = separate determinations, read-out: CDK-2 Inhibition IC50
T1 construct: made in house; host or cells: insect cells (baculovirus co-infection)
Procedure: Substrate: GST-Rb as described above for cdk4/cyclin D1
Assay conditions for cdk2/cyclin E were identical to those for cdk4/cyclin D1 including the substrate. The concentration of recombinant cdk2/cyclin E in the assay was 0.1 μg per 100 μl assay. Incubation was for 30 min at 30° C.

DU145 = experiment: In vitro tumor cell proliferation, DU145; type: cell-based, human; details: many values given with an undefined *, read-out: In vitro Tumor Cell Proliferation (IC50, μM) Prostate DU145
Method in brief: as §1

DMS-114 = experiment: In vitro tumor cell proliferation, DMS-114; type: cell-based, human; details: many values given with an undefined *, read-out: In vitro Tumor Cell Proliferation (IC50, μM) Lung DMS-114
Method in brief: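 Human small cell lung carcinoma DMS-114 cells plated overnight, then drug-treated for 3 days, medium and drug renewed, and incubated 4 more days. Growth read by sulforhodamine B staining after TCA fixation; alternatively by CyQUANT after 3 days' drug exposure and freezing at −80 °C.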

cdk4/cyclin D1 = molecular target: T2, cdk4/cyclin D1 (Homo sapiens, UniProt P11802); experiment: Cyclin-dependent Kinase 4 Assay (cdk4/cyclin D1, GST-Rb substrate); type: biochemical; details: cdk4/cyclin D1 insect cell lysate, 10 μM ATP, 30 min at 37° C., several values = separate determinations, read-out: CDK4 Inhibition IC50
T2 construct: made in house; host or cells: Sf9 insect cells (Bac-to-Bac baculovirus, pFastBac)
T2 sequence (P11802 whole entry): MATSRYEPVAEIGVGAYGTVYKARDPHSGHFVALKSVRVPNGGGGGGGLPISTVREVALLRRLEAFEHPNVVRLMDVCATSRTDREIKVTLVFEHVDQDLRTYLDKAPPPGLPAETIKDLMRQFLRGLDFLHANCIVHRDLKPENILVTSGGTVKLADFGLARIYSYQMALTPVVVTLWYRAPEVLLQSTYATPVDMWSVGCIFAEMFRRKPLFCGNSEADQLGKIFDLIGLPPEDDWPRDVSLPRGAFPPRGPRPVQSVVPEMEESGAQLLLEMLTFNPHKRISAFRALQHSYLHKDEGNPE
T2 sequence (P24385 whole entry partner): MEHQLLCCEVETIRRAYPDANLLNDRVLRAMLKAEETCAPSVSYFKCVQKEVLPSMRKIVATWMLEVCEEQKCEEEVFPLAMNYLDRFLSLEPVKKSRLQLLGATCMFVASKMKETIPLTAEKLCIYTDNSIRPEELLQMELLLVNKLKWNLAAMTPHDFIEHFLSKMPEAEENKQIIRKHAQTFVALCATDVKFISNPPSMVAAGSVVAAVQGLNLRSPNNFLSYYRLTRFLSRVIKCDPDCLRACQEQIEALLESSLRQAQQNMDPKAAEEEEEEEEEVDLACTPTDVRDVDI
Method in brief: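 IC50 against cdk4 measured by scintillation counting of bead-bound GST-Rb (0.5 μg) after filtration and four TNEN washes. Reaction was 30 min at 37 °C in HEPES pH 7.5 buffer with 10 mM MgCl2 and 1 mM EGTA. Enzyme source was 0.1 μg Sf9 lysate coinfected with cdk4 and cyclin D1.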

MDA-MB-231 = experiment: In vitro tumor cell proliferation, MDA-MB-231; type: cell-based, human; details: sulforhodamine B or CyQUANT assay, many values given with an undefined *, read-out: In vitro Tumor Cell Proliferation (IC50, μM) Breast MDA-MB-231
Method in brief: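 Proliferation quantified by SRB staining of TCA-fixed cells after 3 days of drug plus 4 days with replenished drug, following overnight attachment at 37 °C.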

[1] = Homo sapiens, MDA-MB-435, MDA-MB-435
[2] = Homo sapiens, COLO 205, Colo-205
[3] = Homo sapiens, MDA-MB-231, MDA-MB-231

Row | SMILES | IC50 (PC-3; Homo sapiens, PC-3, PC-3) [µM] | IC50 (PC-3; PC-3, trihydrochloride) [µM] | IC50 (HT-29; HT-29, trihydrochloride) [µM] | IC50 (HT-29; Homo sapiens, HT-29, HT-29) [µM] | IC50 (MDA-MB-435; [1]) [µM] | IC50 (MDA-MB-435; MDA-MB-435, trihydrochloride) [µM] | IC50 (Colo-205; Colo-205, trihydrochloride) [µM] | IC50 (Colo-205; [2]) [µM] | IC50 (A549; A549, trihydrochloride) [µM] | IC50 (A549; Homo sapiens, A549, A549) [µM] | IC50 (cdk2/cyclin E) | IC50 (DU145; DU145, trihydrochloride) [µM] | IC50 (DU145; Homo sapiens, DU-145, DU145) [µM] | IC50 (DMS-114; DMS-114, trihydrochloride) [µM] | IC50 (DMS-114; Homo sapiens, DMS-114, DMS-114) [µM] | IC50 (cdk4/cyclin D1) | IC50 (MDA-MB-231; [3]) [µM] | IC50 (MDA-MB-231; MDA-MB-231, trihydrochloride) [µM]
1 | N[C@H]1CC[C@H](Nc2nc(NC3CCN(Cc4ccc(F)cc4F)CC3)c3ncn(C4CCCC4)c3n2)CC1 [Example 147-h, 2-[Trans-(4-aminocyclohexyl)amino]-6-[4-[1-(2,4-difluorobenzyl)piperidinylamino]-9-cyclopentylpurinetrihydrochloride] | 0.33 | 0.58 | 0.47 | 0.42 | 0.48 | 0.78 | 0.21 | 0.34 | 0.16 | 0.22 | 100 nM and 240 nM | 0.36 | 0.34 | 0.47 | 0.94 | 2800 nM and 1800 nM | 0.47 | 
2 | N[C@H]1CC[C@H](Nc2nc(NC3CCN(Cc4cccc(F)c4)CC3)c3ncn(C4CCCC4)c3n2)CC1 [Example 147-j, 2-[Trans-(4-aminocyclohexyl)amino]-6-[4-[1-(3-fluorobenzyl)]piperidinylamino]-9-cyclopentylpurine trihydrochloride] | 0.17 | 0.26 | 0.22 | 0.3 | 0.27 | 0.3 |  | 0.17 | 0.14 | 0.15 | 200 nM and 210 nM | 0.2 | 0.21 | 0.25 | 0.37 | 1300 nM and 720 nM | 0.2 | 0.21
3 | N[C@H]1CC[C@H](Nc2nc(NC3CCN(Cc4ccccc4F)CC3)c3ncn(C4CCCC4)c3n2)CC1 [Example 147-k, 2-[Trans-(4-aminocyclohexyl)amino]-6-[4-[1-(2-fluorobenzyl)]piperidinylamino]-9-cyclopentylpurine trihydrochloride] | 0.35 | 0.34 | 0.26 | 0.4 | 0.39 |  | 0.15 | 0.26 | 0.16 | 0.29 | 200 nM and 170 nM | 0.15 | 0.3 | 0.29 | 0.45 | 2900 nM |  | 0.32
4 | N[C@H]1CC[C@H](Nc2nc(NC3CCN(Cc4cccc(C(F)(F)F)c4)CC3)c3ncn(C4CCCC4)c3n2)CC1 [Example 147-m, 2-[Trans-(4-aminocyclohexyl)amino]-6-[4-[1-(3-trifluoromethylbenzyl)]piperidinylamino]-cyclopentylpurine trihydrochloride] | 0.25 | 0.5 | 0.35 | 0.34 | 0.42 | 0.56 | 0.17 | 0.18 | 0.22 | 0.17 | 65 nM and 77 nM | 0.35 | 0.32 | 0.32 | 0.29 | 370 nM | 0.32 | 0.33
5 | N[C@H]1CC[C@H](Nc2nc(NC3CCN(Cc4cc(Cl)ccc4Cl)CC3)c3ncn(C4CCCC4)c3n2)CC1 [Example 147-r, 2-[Trans-(4-aminocyclohexyl)amino]-6-[4-[1-(2,5-dichlorobenzyl)]piperidinylamino]-9-cyclopentylpurine trihydrochloride] | 0.39 | 0.55 | 0.47 | 0.49 | 0.6 | 0.65 | 0.38 | 0.32 |  | 0.33 | 90 nM and 580 nM and 550 nM and 610 nM | 0.4 | 0.45 | 0.48 | 0.62 | 7200 nM and 4300 nM |  | 0.48

The remaining lines, values ahead:

Row | IC50 (PC-3; Homo sapiens, PC-3, PC-3) [µM] | IC50 (PC-3; PC-3, trihydrochloride) [µM] | IC50 (HT-29; HT-29, trihydrochloride) [µM] | IC50 (HT-29; Homo sapiens, HT-29, HT-29) [µM] | IC50 (MDA-MB-435; [1]) [µM] | IC50 (MDA-MB-435; MDA-MB-435, trihydrochloride) [µM] | IC50 (Colo-205; Colo-205, trihydrochloride) [µM] | IC50 (Colo-205; [2]) [µM] | IC50 (A549; A549, trihydrochloride) [µM] | IC50 (A549; Homo sapiens, A549, A549) [µM] | IC50 (cdk2/cyclin E) | IC50 (DU145; DU145, trihydrochloride) [µM] | IC50 (DU145; Homo sapiens, DU-145, DU145) [µM] | IC50 (DMS-114; DMS-114, trihydrochloride) [µM] | IC50 (DMS-114; Homo sapiens, DMS-114, DMS-114) [µM] | IC50 (cdk4/cyclin D1) | IC50 (MDA-MB-231; [3]) [µM] | IC50 (MDA-MB-231; MDA-MB-231, trihydrochloride) [µM] | SMILES
6 |  | 0.41 | 0.4 | 0.37 | 0.46 |  | 0.19 | 0.26 | 0.19 | 0.26 | 260 nM and 170 nM and 280 nM | 0.29 | 0.3 | 0.43 | 0.48 | 2000 nM and 2700 nM and 1300 nM | 0.33 | 0.29 | N[C@H]1CC[C@H](Nc2nc(NC3CCN(Cc4ccc(F)cc4)CC3)c3ncn(C4CCCC4)c3n2)CC1 [Example 147-l, 2-[Trans-(4-aminocyclohexyl)amino]-6-[4-[1-(4-fluorobenzyl)]piperidinylamino]-9-cyclopentylpurine trihydrochloride]
7 | 0.73 | 0.93 | 0.64 | 0.71 | 0.89 | 1 | 0.32 | 0.44 | 0.33 | 0.39 | 160 nM and 340 nM and 440 nM | 0.59 | 0.6 | 0.8 | 1.1 | 1600 nM and 3100 nM | 0.81 | 0.72 | N[C@H]1CC[C@H](Nc2nc(NC3CCN(Cc4c(F)cccc4Cl)CC3)c3ncn(C4CCCC4)c3n2)CC1 [Example 147-n, 2-[Trans-(4-aminocyclohexyl)amino]-6-[4-[1-(2-chloro-6-fluorobenzyl)]piperidinylamino]-cyclopentylpurine trihydrochloride]
8 | 0.64 | 0.92 | 0.77 | 0.83 | 0.92 | 1.1 | 0.45 | 0.63 | 0.44 | 0.42 | 200 nM and 160 nM | 0.69 | 0.76 | 0.71 | 0.78 | 1800 nM | 0.77 | 0.9 | N[C@H]1CC[C@H](Nc2nc(NC3CCN(Cc4ccc(Cl)c(Cl)c4)CC3)c3ncn(C4CCCC4)c3n2)CC1 [Example 147-o, 2-[Trans-(4-aminocyclohexyl)amino]-6-[4-[1-(3,4-dichlorobenzyl)]piperidinylamino]-9-cyclopentylpurine trihydrochloride]
9 | 0.46 | 0.66 | 0.72 | 0.71 | 0.59 | 0.68 | 0.48 | 0.45 | 0.34 | 0.39 | 300 nM and 110 nM and 360 nM |  | 0.54 | 0.68 | 0.91 | 3100 nM and 3900 nM | 0.57 | 0.6 | N[C@H]1CC[C@H](Nc2nc(NC3CCN(Cc4ccc5ccccc5c4)CC3)c3ncn(C4CCCC4)c3n2)CC1 [Example 147-p, 2-[Trans-(4-aminocyclohexyl)amino]-6-[4-[1-(2-naphthyl)methyl]piperidinylamino]-9-cyclopentylpurine trihydrochloride]
